Data as given in patent US20260053811A1, “METHODS OF TREATING HYPERTENSION IN OBESE SUBJECTS” (Mineralys Therapeutics, Inc., priority 2022, published 2026).

Test system: hypertensive subjects
Assay: Seated automated office blood pressure (AOBP) in randomized, placebo-controlled, dose-ranging study
Format: in vivo, human
Conditions: Part 1, 100 mg QD
Experimental: A randomized, double-blinded, placebo-controlled, dose-ranging, multicenter study was conducted to evaluate the effect of orally administered Compound A HBr on blood pressure for the treatment of hypertension in male and female subjects ≥18 years of age.
The study consists of two parts. For enrollment into Part 1 of the study, a subject's value of plasma renin activity (PRA) must be ≤1 ng/mL/h based on morning measurement. If the value of PRA >1 ng/mL/h based on morning measurement, then subjects may be eligible to enter Part 2 of the study.
For Part 1, 163 enrolled subjects ≥18 years of age were randomized into 6 equal treatment groups (1:1:1:1:1:1) to 12.5 mg BID, 25 mg BID, 12.5 mg QD, 50 mg QD, 100 mg QD, or placebo. After a review of interim clinical data, the 2 lowest dose levels (12.5 mg QD and 12.5 mg BID) were stopped for future randomization due to a lack of consistent meaningful reduction of blood pressure, but the patients randomized to that point remained in the study through completion. Thus, after the review of interim clinical data, subjects were randomized into 4 equal treatment groups (1:1:1:1) to 25 mg BID, 50 mg QD, 100 mg QD, or placebo.
For Part 2, 36 enrolled subjects ≥18 years of age were randomized (5:1) to either 100 mg QD Compound A HBr or placebo such that the Compound A HBr treatment group consisted of approximately 30 subjects and the placebo treatment group will consist of approximately 6 subjects.
Subjects orally administered the assigned study drug (Compound A HBr or placebo) according to the assigned dosing regimen for 8 weeks beginning on Study Day 1. All subjects in Part 1 (regardless of dosing group) received BID dosing to preserve the integrity of the blind; active drug is administered as the morning dose for all QD dose groups. Subjects returned to the research facility or were seen by the clinical investigator or approved home health care professional at the end of Study Weeks 1, 2, 3, 4, 5, 6, 7, and 8 (±2 days) for protocol-defined efficacy and safety assessments and procedures, assessment of adverse events (AEs), and confirmation of compliance with study drug usage. Subjects also completed a telephone visit and blood pressure (BP) check at home approximately 3 days post last dose of study drug. Subjects attended up to 14 full clinic visits, including a pre-Screening visit, a Screening/start of Placebo Run-in visit, a second visit during Placebo Run-in, a clinic visit to initiate the ABPM procedure, a Randomization visit, 8 weekly visits during double-blind treatment, and an end-of-study visit scheduled 4 weeks after the last study treatment for final efficacy and safety assessments.
An automated oscillometric sphygmomanometer device was used to measure the subjects' systolic and diastolic blood pressure in office after approximately 5 minutes of rest in the seated position.
The primary endpoint is the change in office-measured (mean of last 2 of 5 unattended measurements using an automated oscillometric sphygmomanometer device after approximately 5 minutes of rest in the seated position) systolic blood pressure (SBP) from baseline to the end of Study Week 8.
Secondary endpoints of this study were: • (a) Change in 24-hour ambulatory blood pressure monitoring (ABPM) parameters (systolic and diastolic) from baseline to the end of Study Week 7. • (b) Change in office-measured SBP from baseline to the end of Study Weeks 1, 2, 3, 4, 5, 6, and 7. • (c) Change in office-measured diastolic blood pressure (DBP) from baseline to the end of Study Weeks 1, 2, 3, 4, 5, 6, 7, and 8. • (d) Proportion of subjects who achieve office-measured BP of ≤130/80 mm Hg by the end of Study Week 8.

[1] = Systolic Blood Pressure Tertile at Baseline High
[2] = Systolic Blood Pressure Tertile at Baseline Low
[3] = Systolic Blood Pressure Tertile at Baseline Middle
[4] = Thiazide Diuretic Use at Baseline No

SMILES: CC(=O)N[C@H]1CC[C@H](NC(=O)CN2CCN(c3nncc(-c4ccc(C)cc4)n3)CC2)CC1 [Compound A HBr]
- Mean (SD) Automated Office-Measured Diastolic Blood Pressure at Wk 8 (Age ≥80 yr): 65.75 (11.73) mmHg
- Mean (SD) Automated Office-Measured Systolic Blood Pressure at Wk 8 (Age ≥80 yr): 125.00 (8.04) mmHg
- Mean (SD) Change from Baseline at Week 8 in Automated Office-Measured Diastolic Blood Pressure (Age ≥80 yr): −4.75 (8.03) mmHg
- Mean (SD) Change from Baseline at Week 8 in Automated Office-Measured Systolic Blood Pressure (Age ≥80 yr): −18.13 (12.34) mmHg
- Mean (SD) Automated Office-Measured Diastolic Blood Pressure at Wk 8 (BMI 25−30 kg/m^2): 72.67 (9.33) mmHg
- Mean (SD) Change from Baseline at Week 8 in Automated Office-Measured Diastolic Blood Pressure (BMI 25−30 kg/m^2): −6.50 (7.61) mmHg
- Mean (SD) Automated Office-Measured Diastolic Blood Pressure at Wk 8 (BMI <25 kg/m^2): 78.33 (19.14) mmHg
- Mean (SD) Change from Baseline at Week 8 in Automated Office-Measured Diastolic Blood Pressure (BMI <25 kg/m^2): −0.67 (7.01) mmHg
- Mean (SD) Automated Office-Measured Diastolic Blood Pressure at Wk 8 (BMI >30 kg/m^2): 71.42 (7.10) mmHg
- Mean (SD) Change from Baseline at Week 8 in Automated Office-Measured Diastolic Blood Pressure (BMI >30 kg/m^2): −6.88 (7.81) mmHg
- Mean (SD) Automated Office-Measured Systolic Blood Pressure at Wk 8 (BMI at baseline 25-30 kg/m^2): 129.67 (10.05) mmHg
- Mean (SD) Change from Baseline at Week 8 in Automated Office-Measured Systolic Blood Pressure (BMI at baseline 25-30 kg/m^2): −11.17 (11.94) mmHg
- Mean (SD) Automated Office-Measured Systolic Blood Pressure at Wk 8 (BMI at baseline <25 kg/m^2): 146.00 (18.33) mmHg
- Mean (SD) Change from Baseline at Week 8 in Automated Office-Measured Systolic Blood Pressure (BMI at baseline <25 kg/m^2): −7.83 (17.47) mmHg
- Mean (SD) Automated Office-Measured Systolic Blood Pressure at Wk 8 (BMI at baseline >30 kg/m^2): 129.00 (15.28) mmHg
- Mean (SD) Change from Baseline at Week 8 in Automated Office-Measured Systolic Blood Pressure (BMI at baseline >30 kg/m^2): −18.50 (13.40) mmHg
- Mean (SD) Automated Office-Measured Diastolic Blood Pressure at Wk 8 (Race Black or AA): 71.92 (10.83) mmHg
- Mean (SD) Automated Office-Measured Systolic Blood Pressure at Wk 8 (Race Black or AA): 129.92 (16.18) mmHg
- Mean (SD) Change from Baseline at Week 8 in Automated Office-Measured Diastolic Blood Pressure (Race Black or AA): −7.38 (7.65) mmHg
- Mean (SD) Change from Baseline at Week 8 in Automated Office-Measured Systolic Blood Pressure (Race Black or AA): −17.13 (11.55) mmHg
- Mean (SD) Automated Office-Measured Diastolic Blood Pressure at Wk 8 (Race Other): 74.00 (8.26) mmHg
- Mean (SD) Automated Office-Measured Systolic Blood Pressure at Wk 8 (Race Other): 132.54 (12.47) mmHg
- Mean (SD) Change from Baseline at Week 8 in Automated Office-Measured Diastolic Blood Pressure (Race Other): −3.69 (7.91) mmHg
- Mean (SD) Change from Baseline at Week 8 in Automated Office-Measured Systolic Blood Pressure (Race Other): −11.27 (14.54) mmHg
- Mean (SD) Automated Office-Measured Diastolic Blood Pressure at Wk 8 (Seated SBP Tertile High): 72.11 (11.78) mmHg
- Mean (SD) Change from Baseline at Week 8 in Automated Office-Measured Diastolic Blood Pressure (Seated SBP Tertile High): −8.78 (8.56) mmHg
- Mean (SD) Automated Office-Measured Diastolic Blood Pressure at Wk 8 (Seated SBP Tertile Low): 73.86 (11.01) mmHg
- Mean (SD) Change from Baseline at Week 8 in Automated Office-Measured Diastolic Blood Pressure (Seated SBP Tertile Low): −0.29 (6.44) mmHg
- Mean (SD) Automated Office-Measured Diastolic Blood Pressure at Wk 8 (Seated SBP Tertile Middle): 73.22 (5.97) mmHg
- Mean (SD) Change from Baseline at Week 8 in Automated Office-Measured Diastolic Blood Pressure (Seated SBP Tertile Middle): 6.17 (6.64) mmHg
- Mean (SD) Automated Office-Measured Diastolic Blood Pressure at Wk 8 (Sex Female): 70.87 (10.51) mmHg
- Mean (SD) Automated Office-Measured Systolic Blood Pressure at Wk 8 (Sex Female): 132.40 (15.95) mmHg
- Mean (SD) Change from Baseline at Week 8 in Automated Office-Measured Diastolic Blood Pressure (Sex Female): −3.67 (7.27) mmHg
- Mean (SD) Change from Baseline at Week 8 in Automated Office-Measured Systolic Blood Pressure (Sex Female): −13.17 (12.05) mmHg
- Mean (SD) Automated Office-Measured Diastolic Blood Pressure at Wk 8 (Sex Male): 76.20 (6.81) mmHg
- Mean (SD) Automated Office-Measured Systolic Blood Pressure at Wk 8 (Sex Male): 129.60 (11.45) mmHg
- Mean (SD) Change from Baseline at Week 8 in Automated Office-Measured Diastolic Blood Pressure (Sex Male): −8.15 (8.28) mmHg
- Mean (SD) Change from Baseline at Week 8 in Automated Office-Measured Systolic Blood Pressure (Sex Male): −15.45 (15.48) mmHg
- Mean (SD) Automated Office-Measured Systolic Blood Pressure at Wk 8 [1]: 139.11 (15.36) mmHg
- Mean (SD) Change from Baseline at Week 8 in Automated Office-Measured Systolic Blood Pressure [1]: −19.06 (12.91) mmHg
- Mean (SD) Automated Office-Measured Systolic Blood Pressure at Wk 8 [2]: 129.86 (9.26) mmHg
- Mean (SD) Change from Baseline at Week 8 in Automated Office-Measured Systolic Blood Pressure [2]: −4.71 (8.58) mmHg
- Mean (SD) Automated Office-Measured Systolic Blood Pressure at Wk 8 [3]: 124.56 (13.30) mmHg
- Mean (SD) Change from Baseline at Week 8 in Automated Office-Measured Systolic Blood Pressure [3]: −16.39 (13.97) mmHg
- Automated Office-Measured Diastolic Blood Pressure, Week 8, Mean (SD) [4]: 72.40 (10.54) mmHg
- Mean (SD) Automated Office-Measured Systolic Blood Pressure at Wk 8 [4]: 135.80 (9.10) mmHg
